Like-named read-outs stand apart in the source and are kept apart here. Marks after values point to notes of the source that are not given here.
Tests used:
[1] = system: Jurkat (human T lymphocytic leukemia); conditions: 96 hours, ± standard deviation
Procedure: (§1) In the experiments shown in Table1 a/b, the indicated concentrations of hydrogen peroxide were added to the various types of cells and they were incubated for 96 hours until growth was measured by the ^3H-thymidine assay or viability determined by the 3-(4,5-diphenylthiazol-2-yl)-2,5-diphenyltetrazolium bromide (“MTT”) assay. Numbers represent triplicate or quadruplicate determinations.

[2] = system: K-562 (human erythroleukemia); conditions: 96 hours, ± standard deviation
Procedure: as §1

Normal cells = conditions: 96 hours, ± standard deviation
Procedure: as §1

[3] = system: THP-1 (human monocytic leukemia); conditions: 96 hours, ± standard deviation
Procedure: as §1

[4] = system: YT-INDY (human NK cell leukemia); conditions: 96 hours, ± standard deviation
Procedure: as §1

Jurkat cells = conditions: four-hour exposure, 25 μM H2O2

Which “amount of cell division remaining (compared to control cells without hydrogen peroxide)” value ([1]; 25 μM hydrogen peroxide) does the source give for OO [Hydrogen Peroxide, hydrogen peroxide] here?
The value was 1.2 ± 0.4.

What about the “amount of cell division remaining (compared to control cells without hydrogen peroxide)” value ([1]; 50 μM hydrogen peroxide) of the same molecule?
The value was 2.4 ± 1.1.

What about the “amount of cell division remaining (compared to control cells without hydrogen peroxide)” value ([1]; 100 μM hydrogen peroxide) of the same molecule?
Its value is 1.3 ± 1.1.

What about the “amount of cell division remaining (compared to control cells without hydrogen peroxide)” value ([1]; 200 μM hydrogen peroxide) of the same molecule?
Its value is 1.0 ± 0.2.

What about the “amount of cell division remaining (compared to control cells without hydrogen peroxide)” value ([2]; 25 μM hydrogen peroxide) of the same molecule?
The value was 41.6 ± 24.5.

And the “level of live cells remaining (compared to control cells without hydrogen peroxide)” value ([2]; 25 μM hydrogen peroxide)?
The value was 58.6 ± 3.2.

And the “amount of cell division remaining (compared to control cells without hydrogen peroxide)” value ([2]; 50 μM hydrogen peroxide)?
The value was 7.1 ± 5.1.

What about the “level of live cells remaining (compared to control cells without hydrogen peroxide)” value ([2]; 50 μM hydrogen peroxide) of the same molecule?
The value was 19.6 ± 1.2.

And the “amount of cell division remaining (compared to control cells without hydrogen peroxide)” value ([2]; 100 μM hydrogen peroxide)?
The value was 4.3 ± 2.6.

What about the “level of live cells remaining (compared to control cells without hydrogen peroxide)” value ([2]; 100 μM hydrogen peroxide) of the same molecule?
The value was 8.9 ± 0.2.

What about the “amount of cell division remaining (compared to control cells without hydrogen peroxide)” value ([2]; 200 μM hydrogen peroxide) of the same molecule?
Its value is 2.7 ± 0.3.

And the “level of live cells remaining (compared to control cells without hydrogen peroxide)” value ([2]; 200 μM hydrogen peroxide)?
The value was 8.0 ± 0.4.

What about the “amount of cell division remaining (compared to control cells without hydrogen peroxide)” value (Normal cells; 25 μM hydrogen peroxide) of the same molecule?
The value was 68.2 ± 5.4^b.

What about the “level of live cells remaining (compared to control cells without hydrogen peroxide)” value (Normal cells; 25 μM hydrogen peroxide) of the same molecule?
Its value is 100.6 ± 3.3^b.

And the “amount of cell division remaining (compared to control cells without hydrogen peroxide)” value (Normal cells; 50 μM hydrogen peroxide)?
Its value is 84.4 ± 12.3.

What about the “level of live cells remaining (compared to control cells without hydrogen peroxide)” value (Normal cells; 50 μM hydrogen peroxide) of the same molecule?
Its value is 102.7 ± 5.5.

What about the “amount of cell division remaining (compared to control cells without hydrogen peroxide)” value (Normal cells; 100 μM hydrogen peroxide) of the same molecule?
Its value is 92.5 ± 19.9.

What about the “level of live cells remaining (compared to control cells without hydrogen peroxide)” value (Normal cells; 100 μM hydrogen peroxide) of the same molecule?
The value was 89.4 ± 0.9.

What about the “amount of cell division remaining (compared to control cells without hydrogen peroxide)” value (Normal cells; 200 μM hydrogen peroxide) of the same molecule?
The value was 81.9 ± 9.2.

And the “level of live cells remaining (compared to control cells without hydrogen peroxide)” value (Normal cells; 200 μM hydrogen peroxide)?
Its value is 83.0 ± 1.8.

And the “amount of cell division remaining (compared to control cells without hydrogen peroxide)” value ([3]; 25 μM hydrogen peroxide)?
Its value is 115.8 ± 10.6.

And the “level of live cells remaining (compared to control cells without hydrogen peroxide)” value ([3]; 25 μM hydrogen peroxide)?
Its value is 103.0 ± 2.2.

And the “amount of cell division remaining (compared to control cells without hydrogen peroxide)” value ([3]; 50 μM hydrogen peroxide)?
The value was 102.8 ± 5.9.

What about the “level of live cells remaining (compared to control cells without hydrogen peroxide)” value ([3]; 50 μM hydrogen peroxide) of the same molecule?
Its value is 101.8 ± 1.8.

And the “amount of cell division remaining (compared to control cells without hydrogen peroxide)” value ([3]; 100 μM hydrogen peroxide)?
Its value is 91.0 ± 0.2.

What about the “level of live cells remaining (compared to control cells without hydrogen peroxide)” value ([3]; 100 μM hydrogen peroxide) of the same molecule?
Its value is 95.6 ± 0.6.

What about the “amount of cell division remaining (compared to control cells without hydrogen peroxide)” value ([3]; 200 μM hydrogen peroxide) of the same molecule?
The value was 63.2 ± 7.1.

And the “level of live cells remaining (compared to control cells without hydrogen peroxide)” value ([3]; 200 μM hydrogen peroxide)?
Its value is 65.6 ± 2.0.

And the “amount of cell division remaining (compared to control cells without hydrogen peroxide)” value ([4]; 25 μM hydrogen peroxide)?
The value was 109.2 ± 2.4.

What about the “level of live cells remaining (compared to control cells without hydrogen peroxide)” value ([4]; 25 μM hydrogen peroxide) of the same molecule?
Its value is 68.2 ± 4.8.

What about the “amount of cell division remaining (compared to control cells without hydrogen peroxide)” value ([4]; 50 μM hydrogen peroxide) of the same molecule?
The value was 2.8 ± 0.8.

And the “level of live cells remaining (compared to control cells without hydrogen peroxide)” value ([4]; 50 μM hydrogen peroxide)?
Its value is 32.1 ± 2.6.

What about the “amount of cell division remaining (compared to control cells without hydrogen peroxide)” value ([4]; 100 μM hydrogen peroxide) of the same molecule?
Its value is 3.7 ± 2.5.

And the “level of live cells remaining (compared to control cells without hydrogen peroxide)” value ([4]; 100 μM hydrogen peroxide)?
The value was 29.7 ± 1.0.

What about the “amount of cell division remaining (compared to control cells without hydrogen peroxide)” value ([4]; 200 μM hydrogen peroxide) of the same molecule?
Its value is 10.2 ± 3.5.

What about the “level of live cells remaining (compared to control cells without hydrogen peroxide)” value ([4]; 200 μM hydrogen peroxide) of the same molecule?
The value was 27.5 ± 0.5.

What about the “killing of Jurkat cells” value (Jurkat cells) of the same molecule?
The value was “significant killing”.
